Laboratory results taken from paper PMC11505029, “Isatin Bis-Imidathiazole Hybrids Identified as FtsZ Inhibitors with On-Target Activity Against Staphylococcus aureus” (Antibiotics, 2024).

Key:
[1] = system: S. aureus ATCC 25923 biofilm; assay: antibiofilm activity, crystal violet staining; assay type: cell-based, Staphylococcus aureus; settings: 200–25 µM; inhibition of biofilm production; CV staining
Experimental: For the evaluation of the bacterial biofilm formation, an established protocol with minor modifications was used. In short, a bacterial suspension of S. aureus ATCC 25923 was prepared in TSB (Tryptic Soy broth (TSB, Sigma-Aldrich, St. Louis, MO, USA) supplemented with 1% of glucose and adjusted to a final density of 10^5 CFU/mL. Aliquots of 100 µL of the culture were transferred to a 96-well flat-bottom polystyrene microplate, and then incubated at 37 °C for 90 min to promote bacterial adhesion. Thereafter, wells were slowly rinsed with PBS to remove non-attached cells, and 100 µL of medium containing the 2-fold serial dilutions of the compounds were added. After incubation at 37 °C for 24 h, the free-floating cells were removed, and the biofilms were carefully washed with PBS, and incubated for 1 h at 60 °C. Bacterial biomass was quantified by a standardized crystal violet (CV) staining. Briefly, 100 µL of CV solution (0.1% in water) were added to each well containing a completely air-dried biofilm, and incubated for 30 min at 37 °C. […] Finally, the colored supernatants were transferred to a new microplate and the OD550nm was read. The inhibitory effect of the compounds on biofilm production was evaluated in comparison to the positive control (S. aureus grown in absence of compounds), and negative control (only medium).

[2] = system: S. aureus MRSA 3; assay: dose-response against clinical isolate MRSA 3; assay type: cell-based; settings: Staphylococcus aureus, mean [95% confidence interval]
Experimental: The antimicrobial activity of the compounds was assessed by a well-established broth microdilution procedure in microtiter plates and in compliance with the Clinical and laboratory Standard Institute (CLSI) guidelines (Clinical and Laboratory Standards Institute, Wayne, PA, USA). In short, microbial inocula were prepared at 0.5 McFarland in PBS and, subsequently, bacterial suspensions were diluted 1:200 in Mueller–Hinton broth (Sigma-Aldrich, St. Louis, MO, USA), while fungal inoculum was diluted 1:20 in RPMI-1640 medium (Gibco®, ThermoFisher Scientific Inc., Waltham, MA, USA), containing 2% glucose and 0.3% levo-glutamine buffered to pH 7.0 with 0.165 M 3-(N-morpholino)propanesulfonic acid (MOPS). A total of 100 µL of these microbial suspensions were introduced in a 96-well microplate and incubated with 100 µL of the compounds, two-fold serially diluted in the range of 100–0.19 µM. Positive controls (microbial suspensions in regular media), negative controls (only compounds), and solvent controls (microbial suspensions incubated with DMSO dilutions) were included in the tests. The plate was incubated at 37 °C for 24 h, and subsequently, the optical density at 630 nm (OD630nm) was spectrophotometrically measured. Each experiment was carried out with three technical replicates (i.e., three wells per sample) and repeated at least two times for statistical power. […]

[3] = system: E. coli ATCC 25922; assay: broth microdilution antimicrobial activity, E. coli reference strain; assay type: cell-based, Escherichia coli; settings: 100 μM, growth relative to positive control, mean ± SD
Experimental: Reference bacterial strains of Staphylococcus aureus (ATCC 25923), Escherichia coli (ATCC 25922), and Candida albicans (ATCC 10231) were used in this study as Gram-positive, Gram-negative, and fungal models, respectively. These reference strains were purchased from the American Type Culture Collection (ATCC, Manassas, VA, USA); bacterial cultures were routinely grown at 37 °C on 5% blood agar plate, while fungal cultures on Sabouraud Dextrose Agar (Biolife Italiana S.r.l., Milan, Italy).
The dry powder of the isatin derivatives was resuspended in dimethylsulfoxide (DMSO) at 20 mM and used as stock solutions. For biological investigations, compounds were used in the range 100–0.78 µM, and the solvent in the corresponding percentage range.
The antimicrobial activity of the compounds was assessed by a well-established broth microdilution procedure in microtiter plates and in compliance with the Clinical and laboratory Standard Institute (CLSI) guidelines (Clinical and Laboratory Standards Institute, Wayne, PA, USA). In short, microbial inocula were prepared at 0.5 McFarland in PBS and, subsequently, bacterial suspensions were diluted 1:200 in Mueller–Hinton broth (Sigma-Aldrich, St. Louis, MO, USA), while fungal inoculum was diluted 1:20 in RPMI-1640 medium (Gibco®, ThermoFisher Scientific Inc., Waltham, MA, USA), containing 2% glucose and 0.3% levo-glutamine buffered to pH 7.0 with 0.165 M 3-(N-morpholino)propanesulfonic acid (MOPS). A total of 100 µL of these microbial suspensions were introduced in a 96-well microplate and incubated with 100 µL of the compounds, two-fold serially diluted in the range of 100–0.19 µM. Positive controls (microbial suspensions in regular media), negative controls (only compounds), and solvent controls (microbial suspensions incubated with DMSO dilutions) were included in the tests. The plate was incubated at 37 °C for 24 h, and subsequently, the optical density at 630 nm (OD630nm) was spectrophotometrically measured. Each experiment was carried out with three technical replicates (i.e., three wells per sample) and repeated at least two times for statistical power. […] IC50 values, corresponding to the concentration of the compound giving rise to an inhibition of growth of 50%, were obtained by interpolation on dose–response curves generated by plotting the percentages of growth inhibition, relative to the positive control (set to 100% of growth), as a function of the tested concentrations (on a logarithm scale). Statistical analysis was carried out using GraphPad Prism version 9.4.1 for Windows (GraphPad Software, San Diego, CA, USA, www.graphpad.com).

IC50 [2]: 8.7 µM
SMILES: O=C1Nc2cc(OC(F)(F)F)ccc2C1(c1c(Cl)nc2sccn12)c1c(Cl)nc2sccn12 [Compound 11, 3,3-bis(6-Chloroimidazo[2,1-b]thiazol-5-yl)-6-(trifluoromethoxy)indolin-2-one]
biofilm biomass compared to the untreated control [1]: < 10% | Microbial growth, E. coli [3]: did not inhibit the growth | activity at 100 µM ([3]; Escherichia coli, ATCC25922, read-out: Microbial growth, E. coli): 108 ± 2.4%
